Assay results: ChEMBL document CHEMBL5442741, “ASAP - In vitro kinase profile” (2024)

Legend:
[1] = biological target: Cyclin-dependent kinase 2/cyclin A (Homo sapiens) (UniProt P24941+P20248+P78396); assay: Enzymatic radiometric [Km ATP] KinaseProfiler LeadHunter assay, kinase: CDK2/cyclinA, catalogue number: 14-448KP The assay has been performed by Eurofins Discovery.; type: protein-complex assay; details: ATP concentration 45.0 uM, Test compound concentration 10.0 uM
[2] = biological target: T1, Serine/threonine-protein kinase Chk1 (Homo sapiens) (UniProt O14757); assay: Enzymatic radiometric [Km ATP] KinaseProfiler LeadHunter assay, kinase: CHK1, catalogue number: 14-346KP The assay has been performed by Eurofins Discovery.; details: ATP concentration 90.0 uM, Test compound concentration 10.0 uM
T1 sequence (whole entry): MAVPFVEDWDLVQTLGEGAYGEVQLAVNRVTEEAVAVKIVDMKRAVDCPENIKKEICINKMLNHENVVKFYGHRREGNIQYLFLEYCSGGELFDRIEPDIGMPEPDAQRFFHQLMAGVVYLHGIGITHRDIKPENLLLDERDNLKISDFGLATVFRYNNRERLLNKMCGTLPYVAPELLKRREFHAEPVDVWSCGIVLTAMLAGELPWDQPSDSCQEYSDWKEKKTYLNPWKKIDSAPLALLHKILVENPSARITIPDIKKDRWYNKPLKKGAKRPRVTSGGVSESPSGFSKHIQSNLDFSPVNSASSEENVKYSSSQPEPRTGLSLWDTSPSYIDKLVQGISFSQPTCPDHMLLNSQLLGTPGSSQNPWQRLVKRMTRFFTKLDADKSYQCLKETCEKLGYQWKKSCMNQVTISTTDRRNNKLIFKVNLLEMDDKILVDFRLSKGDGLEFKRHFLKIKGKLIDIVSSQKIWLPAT

[3] = biological target: MAP kinase-activated protein kinase 2 (Homo sapiens) (UniProt P49137); assay: Enzymatic radiometric [Km ATP] KinaseProfiler LeadHunter assay, kinase: MAPKAP-K2, catalogue number: 14-337KP The assay has been performed by Eurofins Discovery.; details: ATP concentration 90.0 uM, Test compound concentration 10.0 uM
MAP kinase-activated protein kinase 2 (Homo sapiens), sequence (P49137 whole entry, looked up): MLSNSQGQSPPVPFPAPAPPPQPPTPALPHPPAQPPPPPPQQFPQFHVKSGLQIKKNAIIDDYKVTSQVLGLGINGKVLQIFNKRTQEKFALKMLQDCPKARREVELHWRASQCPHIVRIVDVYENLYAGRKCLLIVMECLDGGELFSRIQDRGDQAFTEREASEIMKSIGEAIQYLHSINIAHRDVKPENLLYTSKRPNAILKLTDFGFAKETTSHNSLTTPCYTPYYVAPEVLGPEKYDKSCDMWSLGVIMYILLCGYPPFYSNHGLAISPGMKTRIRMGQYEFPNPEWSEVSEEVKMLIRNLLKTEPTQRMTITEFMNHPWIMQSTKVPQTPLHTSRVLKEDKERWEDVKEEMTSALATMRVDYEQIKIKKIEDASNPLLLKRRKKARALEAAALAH

[4] = biological target: Platelet-derived growth factor receptor beta (Homo sapiens) (UniProt P09619); assay: Enzymatic radiometric [Km ATP] KinaseProfiler LeadHunter assay, kinase: PDGFR-beta, catalogue number: 14-463KP The assay has been performed by Eurofins Discovery.; details: ATP concentration 200.0 uM, Test compound concentration 10.0 uM
Platelet-derived growth factor receptor beta (Homo sapiens), sequence (P09619 whole entry): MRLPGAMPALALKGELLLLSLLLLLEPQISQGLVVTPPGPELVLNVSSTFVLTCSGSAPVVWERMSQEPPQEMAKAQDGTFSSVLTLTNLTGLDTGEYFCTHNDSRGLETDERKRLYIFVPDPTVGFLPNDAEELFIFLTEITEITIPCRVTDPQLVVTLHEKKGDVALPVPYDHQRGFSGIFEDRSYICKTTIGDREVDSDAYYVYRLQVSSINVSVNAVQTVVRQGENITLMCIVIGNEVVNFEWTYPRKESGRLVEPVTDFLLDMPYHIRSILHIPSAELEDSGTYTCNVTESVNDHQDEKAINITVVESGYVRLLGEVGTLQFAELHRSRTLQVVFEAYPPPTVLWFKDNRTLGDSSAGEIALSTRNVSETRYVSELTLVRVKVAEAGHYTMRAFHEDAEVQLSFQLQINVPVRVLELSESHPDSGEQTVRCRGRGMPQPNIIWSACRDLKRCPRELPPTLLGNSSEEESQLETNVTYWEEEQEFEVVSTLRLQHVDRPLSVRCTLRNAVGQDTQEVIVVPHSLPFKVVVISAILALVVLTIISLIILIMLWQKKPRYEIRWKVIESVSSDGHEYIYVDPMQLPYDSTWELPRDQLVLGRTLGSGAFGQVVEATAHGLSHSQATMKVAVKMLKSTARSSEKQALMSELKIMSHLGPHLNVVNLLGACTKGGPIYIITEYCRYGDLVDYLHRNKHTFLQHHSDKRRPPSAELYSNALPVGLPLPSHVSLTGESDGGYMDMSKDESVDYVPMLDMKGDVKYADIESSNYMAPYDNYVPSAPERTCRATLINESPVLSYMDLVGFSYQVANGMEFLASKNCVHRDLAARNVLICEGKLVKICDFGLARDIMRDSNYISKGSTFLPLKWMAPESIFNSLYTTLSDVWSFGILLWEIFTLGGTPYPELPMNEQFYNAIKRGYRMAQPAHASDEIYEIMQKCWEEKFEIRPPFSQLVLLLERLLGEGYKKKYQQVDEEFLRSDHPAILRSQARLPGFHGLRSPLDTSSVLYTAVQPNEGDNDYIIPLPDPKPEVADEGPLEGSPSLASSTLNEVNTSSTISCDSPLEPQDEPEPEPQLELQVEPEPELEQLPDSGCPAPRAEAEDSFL

[5] = biological target: SRSF protein kinase 1 (Homo sapiens) (UniProt Q96SB4); assay: Enzymatic radiometric [Km ATP] KinaseProfiler LeadHunter assay, kinase: SRPK1, catalogue number: 14-564KP The assay has been performed by Eurofins Discovery.; details: ATP concentration 10.0 uM, Test compound concentration 10.0 uM
SRSF protein kinase 1 (Homo sapiens), sequence (Q96SB4 whole entry): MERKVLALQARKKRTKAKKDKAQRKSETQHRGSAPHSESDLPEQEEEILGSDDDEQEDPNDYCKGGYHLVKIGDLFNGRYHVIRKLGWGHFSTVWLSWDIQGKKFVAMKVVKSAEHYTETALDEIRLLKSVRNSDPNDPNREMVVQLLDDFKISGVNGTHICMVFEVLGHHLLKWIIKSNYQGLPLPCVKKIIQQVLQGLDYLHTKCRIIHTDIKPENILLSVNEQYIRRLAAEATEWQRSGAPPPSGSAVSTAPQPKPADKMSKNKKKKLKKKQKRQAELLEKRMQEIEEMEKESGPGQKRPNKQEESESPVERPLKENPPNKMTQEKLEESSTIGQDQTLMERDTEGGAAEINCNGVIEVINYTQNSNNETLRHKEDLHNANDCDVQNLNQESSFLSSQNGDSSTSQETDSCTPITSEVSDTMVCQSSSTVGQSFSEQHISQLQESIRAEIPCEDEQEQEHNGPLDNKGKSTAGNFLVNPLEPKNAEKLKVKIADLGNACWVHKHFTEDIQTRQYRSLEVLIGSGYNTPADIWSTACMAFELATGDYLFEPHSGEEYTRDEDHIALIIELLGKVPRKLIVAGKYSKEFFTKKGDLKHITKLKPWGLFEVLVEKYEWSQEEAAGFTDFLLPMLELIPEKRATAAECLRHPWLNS

[6] = biological target: Mitogen-activated protein kinase 14 (Homo sapiens) (UniProt Q16539); assay: Enzymatic radiometric [Km ATP] KinaseProfiler LeadHunter assay, kinase: SAPK2a, catalogue number: 14-251KP The assay has been performed by Eurofins Discovery.; details: ATP concentration 90.0 uM, Test compound concentration 10.0 uM
Mitogen-activated protein kinase 14 (Homo sapiens), sequence (Q16539 whole entry): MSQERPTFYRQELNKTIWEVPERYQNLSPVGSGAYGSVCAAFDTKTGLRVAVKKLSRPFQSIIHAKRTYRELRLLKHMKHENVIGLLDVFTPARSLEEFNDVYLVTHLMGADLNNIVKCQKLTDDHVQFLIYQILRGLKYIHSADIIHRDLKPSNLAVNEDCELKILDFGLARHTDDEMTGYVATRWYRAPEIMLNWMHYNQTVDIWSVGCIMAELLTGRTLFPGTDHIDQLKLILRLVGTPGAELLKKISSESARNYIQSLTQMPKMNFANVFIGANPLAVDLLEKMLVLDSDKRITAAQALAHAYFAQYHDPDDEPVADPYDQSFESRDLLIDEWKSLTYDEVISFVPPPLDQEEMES

[7] = biological target: Dual specificity mitogen-activated protein kinase kinase 1 (Homo sapiens) (UniProt Q02750); assay: Enzymatic radiometric [Km ATP] KinaseProfiler LeadHunter assay, kinase: MEK1, catalogue number: 14-429KP The assay has been performed by Eurofins Discovery.; details: ATP concentration 10.0 uM, Test compound concentration 10.0 uM
Dual specificity mitogen-activated protein kinase kinase 1 (Homo sapiens), sequence (Q02750 whole entry): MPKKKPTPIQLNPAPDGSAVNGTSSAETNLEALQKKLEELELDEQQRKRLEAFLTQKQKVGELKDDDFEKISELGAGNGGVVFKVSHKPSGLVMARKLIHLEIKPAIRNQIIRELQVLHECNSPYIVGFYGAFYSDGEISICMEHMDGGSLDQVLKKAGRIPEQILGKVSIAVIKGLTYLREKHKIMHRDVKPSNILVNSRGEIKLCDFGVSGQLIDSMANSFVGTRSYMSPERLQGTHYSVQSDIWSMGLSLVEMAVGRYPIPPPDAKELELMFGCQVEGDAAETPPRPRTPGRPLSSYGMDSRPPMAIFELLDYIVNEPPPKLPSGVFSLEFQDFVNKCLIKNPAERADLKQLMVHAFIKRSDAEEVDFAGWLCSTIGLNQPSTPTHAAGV

[8] = biological target: PI3K p110 beta/p85 alpha (Homo sapiens) (UniProt P27986+P42338); assay: Enzymatic radiometric [Km ATP] KinaseProfiler LeadHunter assay, kinase: PI3 Kinase (p110-beta/p85-alpha), catalogue number: 14-603KP The assay has been performed by Eurofins Discovery.; type: protein-complex assay; details: ATP concentration 200.0 uM, Test compound concentration 10.0 uM
[9] = biological target: RAC-alpha serine/threonine-protein kinase (Homo sapiens) (UniProt P31749); assay: Enzymatic radiometric [Km ATP] KinaseProfiler LeadHunter assay, kinase: PKB-alpha, catalogue number: 14-276KP The assay has been performed by Eurofins Discovery.; details: ATP concentration 155.0 uM, Test compound concentration 10.0 uM
RAC-alpha serine/threonine-protein kinase (Homo sapiens), sequence (P31749 whole entry): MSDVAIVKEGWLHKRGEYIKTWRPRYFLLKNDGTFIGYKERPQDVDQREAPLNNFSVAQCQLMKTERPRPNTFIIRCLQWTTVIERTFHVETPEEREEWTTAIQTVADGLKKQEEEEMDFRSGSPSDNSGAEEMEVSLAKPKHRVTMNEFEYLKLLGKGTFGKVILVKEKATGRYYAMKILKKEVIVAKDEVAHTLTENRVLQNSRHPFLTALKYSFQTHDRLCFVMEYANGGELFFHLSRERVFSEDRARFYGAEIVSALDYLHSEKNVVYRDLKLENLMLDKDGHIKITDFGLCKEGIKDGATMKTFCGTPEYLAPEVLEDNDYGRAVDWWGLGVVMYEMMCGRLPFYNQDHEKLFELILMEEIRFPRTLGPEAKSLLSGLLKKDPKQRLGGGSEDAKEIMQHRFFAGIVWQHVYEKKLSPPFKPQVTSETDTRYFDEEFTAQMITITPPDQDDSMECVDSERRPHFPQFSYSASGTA

[10] = biological target: Ribosomal protein S6 kinase alpha-4 (Homo sapiens) (UniProt O75676); assay: Enzymatic radiometric [Km ATP] KinaseProfiler LeadHunter assay, kinase: MSK2, catalogue number: 14-616KP The assay has been performed by Eurofins Discovery.; details: ATP concentration 45.0 uM, Test compound concentration 10.0 uM
Ribosomal protein S6 kinase alpha-4 (Homo sapiens), sequence (O75676 whole entry, looked up): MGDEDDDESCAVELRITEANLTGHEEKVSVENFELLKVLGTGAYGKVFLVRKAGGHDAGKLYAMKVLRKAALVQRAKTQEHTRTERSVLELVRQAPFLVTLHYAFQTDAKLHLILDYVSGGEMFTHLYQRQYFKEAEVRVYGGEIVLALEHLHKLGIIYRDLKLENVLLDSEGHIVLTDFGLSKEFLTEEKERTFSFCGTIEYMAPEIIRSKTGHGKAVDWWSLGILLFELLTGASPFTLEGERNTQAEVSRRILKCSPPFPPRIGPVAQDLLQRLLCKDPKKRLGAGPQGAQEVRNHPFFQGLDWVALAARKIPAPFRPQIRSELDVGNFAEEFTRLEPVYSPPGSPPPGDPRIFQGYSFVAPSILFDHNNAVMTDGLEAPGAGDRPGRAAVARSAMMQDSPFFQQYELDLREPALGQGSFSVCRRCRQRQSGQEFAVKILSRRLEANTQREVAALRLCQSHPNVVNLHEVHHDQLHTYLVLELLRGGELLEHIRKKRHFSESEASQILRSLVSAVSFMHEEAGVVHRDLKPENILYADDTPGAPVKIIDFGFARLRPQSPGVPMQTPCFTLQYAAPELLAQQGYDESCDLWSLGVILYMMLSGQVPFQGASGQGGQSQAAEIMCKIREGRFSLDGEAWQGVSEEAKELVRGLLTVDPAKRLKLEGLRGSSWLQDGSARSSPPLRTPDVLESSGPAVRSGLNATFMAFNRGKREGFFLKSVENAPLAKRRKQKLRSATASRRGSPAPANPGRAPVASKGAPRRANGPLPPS

[11] = biological target: T2, Ephrin type-B receptor 4 (Homo sapiens) (UniProt P54760); assay: Enzymatic radiometric [Km ATP] KinaseProfiler LeadHunter assay, kinase: EphB4, catalogue number: 14-554KP The assay has been performed by Eurofins Discovery.; details: ATP concentration 10.0 uM, Test compound concentration 10.0 uM
T2 sequence (whole entry): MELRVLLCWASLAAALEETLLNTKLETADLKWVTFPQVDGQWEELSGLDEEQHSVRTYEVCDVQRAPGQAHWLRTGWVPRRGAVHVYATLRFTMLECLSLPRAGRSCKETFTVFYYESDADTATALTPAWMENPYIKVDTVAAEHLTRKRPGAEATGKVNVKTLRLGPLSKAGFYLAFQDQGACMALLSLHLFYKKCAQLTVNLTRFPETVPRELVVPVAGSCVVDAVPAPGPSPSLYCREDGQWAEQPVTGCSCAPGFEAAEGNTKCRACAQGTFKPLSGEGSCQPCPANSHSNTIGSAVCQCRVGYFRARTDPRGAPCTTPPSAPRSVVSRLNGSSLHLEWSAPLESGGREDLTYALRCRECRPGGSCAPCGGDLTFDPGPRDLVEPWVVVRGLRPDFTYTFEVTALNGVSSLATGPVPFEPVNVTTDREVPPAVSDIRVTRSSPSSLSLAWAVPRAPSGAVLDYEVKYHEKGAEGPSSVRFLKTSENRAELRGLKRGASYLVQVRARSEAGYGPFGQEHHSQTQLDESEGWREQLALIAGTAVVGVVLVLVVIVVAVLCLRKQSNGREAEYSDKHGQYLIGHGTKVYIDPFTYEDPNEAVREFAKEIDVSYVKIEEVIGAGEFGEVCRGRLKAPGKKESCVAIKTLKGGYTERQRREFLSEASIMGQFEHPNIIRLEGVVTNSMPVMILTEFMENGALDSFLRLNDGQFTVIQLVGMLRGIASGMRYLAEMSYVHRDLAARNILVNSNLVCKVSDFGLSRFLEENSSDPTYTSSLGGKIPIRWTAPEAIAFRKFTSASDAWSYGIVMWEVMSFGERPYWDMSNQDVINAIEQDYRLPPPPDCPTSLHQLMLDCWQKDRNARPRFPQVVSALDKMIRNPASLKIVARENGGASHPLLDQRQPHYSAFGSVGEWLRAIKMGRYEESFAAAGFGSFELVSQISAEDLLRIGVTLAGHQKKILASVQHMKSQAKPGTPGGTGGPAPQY

[12] = biological target: PI3-kinase p110-delta/p85-alpha (Homo sapiens) (UniProt P27986+O00329); assay: Enzymatic radiometric [Km ATP] KinaseProfiler LeadHunter assay, kinase: PI3 Kinase (p110-delta/p85-alpha), catalogue number: 14-604KP The assay has been performed by Eurofins Discovery.; type: protein-complex assay; details: ATP concentration 200.0 uM, Test compound concentration 10.0 uM
[13] = biological target: RAF proto-oncogene serine/threonine-protein kinase (Homo sapiens) (UniProt P04049); assay: Enzymatic radiometric [Km ATP] KinaseProfiler LeadHunter assay, kinase: c-RAF, catalogue number: 14-352KP The assay has been performed by Eurofins Discovery.; details: ATP concentration 120.0 uM, Test compound concentration 10.0 uM
RAF proto-oncogene serine/threonine-protein kinase (Homo sapiens), sequence (P04049 whole entry): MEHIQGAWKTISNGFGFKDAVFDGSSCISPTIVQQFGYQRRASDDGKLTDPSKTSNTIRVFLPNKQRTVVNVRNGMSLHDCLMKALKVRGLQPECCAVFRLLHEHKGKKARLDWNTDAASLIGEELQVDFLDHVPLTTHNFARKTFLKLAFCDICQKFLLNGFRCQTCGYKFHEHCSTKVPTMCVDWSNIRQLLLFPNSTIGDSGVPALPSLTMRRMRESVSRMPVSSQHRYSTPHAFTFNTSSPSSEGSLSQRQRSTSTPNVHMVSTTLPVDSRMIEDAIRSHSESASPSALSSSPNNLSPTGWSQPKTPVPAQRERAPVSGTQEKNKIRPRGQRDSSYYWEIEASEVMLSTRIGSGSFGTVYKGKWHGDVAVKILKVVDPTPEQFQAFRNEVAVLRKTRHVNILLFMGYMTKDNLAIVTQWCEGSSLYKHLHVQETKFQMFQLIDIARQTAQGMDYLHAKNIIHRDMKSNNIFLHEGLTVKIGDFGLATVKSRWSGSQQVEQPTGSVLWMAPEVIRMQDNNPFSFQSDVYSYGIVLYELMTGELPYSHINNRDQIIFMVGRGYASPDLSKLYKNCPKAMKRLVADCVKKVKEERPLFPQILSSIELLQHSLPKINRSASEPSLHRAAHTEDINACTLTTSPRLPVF

SMILES: CNC(=O)Cn1cc(-c2cc3c(N[C@@H](c4ccc5c(c4)S(=O)(=O)CCC5)C(C)C)ncnc3[nH]2)cn1
- Activity [1]: 95%
- Activity [2]: 107%
- Activity [3]: 111%
- Activity [4]: 90%
- Activity [5]: 94%
- Activity [6]: 103%
- Activity [7]: 97%
- Activity [8]: 100%
- Activity [9]: 95%
- Activity [10]: 92%
- Activity [11]: 97%
- Activity [12]: 87%
- Activity [13]: 102%

SMILES: CC(C)[C@@H](Nc1ncnc2[nH]ccc12)c1ccc2c(c1)S(=O)(=O)CCC2
- Activity [1]: 96%
- Activity [2]: 84%
- Activity [3]: 105%
- Activity [4]: 99%
- Activity [5]: 105%
- Activity [6]: 108%
- Activity [7]: 97%
- Activity [8]: 101%
- Activity [9]: 96%
- Activity [10]: 99%
- Activity [11]: 91%
- Activity [12]: 101%
- Activity [13]: 97%

SMILES: Cc1nn(C)cc1-c1cc2c(N[C@H](c3ccc4c(c3)S(=O)(=O)CCC4)C(C)C)ncnc2[nH]1
- Activity [1]: 107%
- Activity [2]: 102%
- Activity [3]: 110%
- Activity [4]: 97%
- Activity [5]: 104%
- Activity [6]: 98%
- Activity [7]: 99%
- Activity [8]: 105%
- Activity [9]: 91%
- Activity [10]: 105%
- Activity [11]: 98%
- Activity [12]: 101%
- Activity [13]: 93%

SMILES: Cn1ncc(-c2cc3c(N[C@@H](c4ccc5c(n4)OCCO5)C(C)(C)C)ncnc3[nH]2)c1C#N
- Activity [1]: 114%
- Activity [2]: 125%
- Activity [3]: 110%
- Activity [4]: 100%
- Activity [5]: 117%
- Activity [6]: 106%
- Activity [7]: 98%
- Activity [8]: 91%
- Activity [9]: 103%
- Activity [10]: 122%
- Activity [11]: 115%
- Activity [12]: 73%
- Activity [13]: 87%

SMILES: CC(C)[C@H](Nc1ncnc2[nH]c(-c3cnn(C)c3C#N)cc12)c1ccc2c(n1)OCCO2
- Activity [1]: 104%
- Activity [2]: 119%
- Activity [3]: 115%
- Activity [4]: 92%
- Activity [5]: 111%
- Activity [6]: 99%
- Activity [7]: 97%
- Activity [8]: 86%
- Activity [9]: 90%
- Activity [10]: 114%
- Activity [11]: 89%
- Activity [12]: 66%
- Activity [13]: 97%

SMILES: CNCc1cc(-c2cc3c(N[C@@H](c4ccc5c(c4)S(=O)(=O)CCC5)C(C)C)ncnc3[nH]2)co1
- Activity [1]: 98%
- Activity [2]: 111%
- Activity [3]: 106%
- Activity [4]: 89%
- Activity [5]: 101%
- Activity [6]: 97%
- Activity [7]: 97%
- Activity [8]: 92%
- Activity [9]: 96%
- Activity [10]: 91%
- Activity [11]: 92%
- Activity [12]: 80%
- Activity [13]: 100%
